Assay results as given in PubChem BioAssay AID272 (DTP/NCI, 2004).
“And” between values parts separate entries of the source, which are not always exact repeats. Identical values can stand only once. Records with an inconclusive call do not appear.

Tested on: Lewis lung carcinoma i.m., BDF1 mice, T/C %
Assay: NCI In Vivo Anticancer Drug Screen. Data for tumor model Lewis Lung Carcinoma (intramuscular) in B6D2F1 (BDF1) mice
How it was run: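 Antitumour activity is assessed in transplanted-tumour mice. Endpoint is survival or tumour size, normalised to vehicle-dosed controls (T/C).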

O=P1(N(CCCl)CCCl)NCCCO1 (stereo not drawn)
T/C (endpoint: mean tumor weight (est.), dose: 65.0 mg/kg/injection, schedule: Q01DX011 (ip), vehicle: saline, higher = larger tumour): 40 % of control | T/C (endpoint: mean tumor weight, dose: 65.0 mg/kg/injection, schedule: Q01DX001 (sc), vehicle: saline, higher = larger tumour): 44 % of control | T/C (endpoint: mean tumor weight, dose: 100.0 mg/kg/injection, schedule: Q01DX001 (ip), vehicle: saline, higher = larger tumour): 58 % of control | T/C (endpoint: mean tumor weight, dose: 108.0 mg/kg/injection, schedule: Q01DX001 (sc), vehicle: saline, higher = larger tumour): 39 % of control | T/C (endpoint: mean tumor weight, dose: 180.0 mg/kg/injection, schedule: Q01DX001 (ip), vehicle: saline, higher = larger tumour): 13 % of control | T/C (endpoint: mean tumor weight, dose: 180.0 mg/kg/injection, schedule: Q01DX001 (sc), vehicle: saline, higher = larger tumour): 27 % of control | T/C (endpoint: mean tumor weight, dose: 300.0 mg/kg/injection, schedule: Q01DX001 (sc), vehicle: saline, higher = larger tumour): 31 % of control | T/C (endpoint: median survival time, dose: 6.25 mg/kg/injection, schedule: Q01DX009 (ip), vehicle: saline, higher = longer survival): 106 % of control | T/C (endpoint: median survival time, dose: 12.5 mg/kg/injection, schedule: Q01DX009 (ip), vehicle: saline, higher = longer survival): 116 % of control | T/C (endpoint: median survival time, dose: 12.5 mg/kg/injection, schedule: Q03DX010 (ip), vehicle: saline, higher = longer survival): 109 % of control and 110 % of control | T/C (endpoint: median survival time, dose: 19.0 mg/kg/injection, schedule: Q01DX007 (sc), vehicle: saline, higher = longer survival): 100 % of control | T/C (endpoint: median survival time, dose: 23.0 mg/kg/injection, schedule: Q08DX003 (sc), vehicle: saline, higher = longer survival): 121 % of control | T/C (endpoint: median survival time, dose: 25.0 mg/kg/injection, schedule: Q01DX009 (ip), vehicle: saline, higher = longer survival): 114 % of control | T/C (endpoint: median survival time, dose: 39.0 mg/kg/injection, schedule: Q08DX003 (ip), vehicle: saline, higher = longer survival): 100 % of control and 105 % of control | T/C (endpoint: median survival time, dose: 39.0 mg/kg/injection, schedule: Q08DX003 (sc), vehicle: saline, higher = longer survival): 184 % of control and 186 % of control | T/C (endpoint: median survival time, dose: 50.0 mg/kg/injection, schedule: Q01DX001 (ip), vehicle: methylcellulose (MC), higher = longer survival): 104 % of control and 106 % of control | T/C (endpoint: median survival time, dose: 50.0 mg/kg/injection, schedule: Q01DX009 (ip), vehicle: saline, higher = longer survival): 114 % of control | T/C (endpoint: median survival time, dose: 52.0 mg/kg/injection, schedule: Q01DX007 (sc), vehicle: saline, higher = longer survival): 95 % of control and 105 % of control | T/C (endpoint: median survival time, dose: 65.0 mg/kg/injection, schedule: Q08DX003 (ip), vehicle: saline, higher = longer survival): 161 % of control | T/C (endpoint: median survival time, dose: 65.0 mg/kg/injection, schedule: Q08DX003 (sc), vehicle: saline, higher = longer survival): 191 % of control and 192 % of control | T/C (endpoint: median survival time, dose: 65.0 mg/kg/injection, schedule: Q14DX002 (ip), vehicle: saline, higher = longer survival): 168 % of control | T/C (endpoint: median survival time, dose: 86.0 mg/kg/injection, schedule: Q01DX007 (sc), vehicle: saline, higher = longer survival): 78 % of control | T/C (endpoint: median survival time, dose: 100.0 mg/kg/injection, schedule: Q01DX001 (ip), vehicle: methylcellulose (MC), higher = longer survival): 198 % of control and 235 % of control | T/C (endpoint: median survival time, dose: 100.0 mg/kg/injection, schedule: Q14DX002 (ip), vehicle: saline, higher = longer survival): 159 % of control | T/C (endpoint: median survival time, dose: 108.0 mg/kg/injection, schedule: Q08DX003 (ip), vehicle: saline, higher = longer survival): 89 % of control | T/C (endpoint: median survival time, dose: 108.0 mg/kg/injection, schedule: Q08DX003 (sc), vehicle: saline, higher = longer survival): 173 % of control and 186 % of control | T/C (endpoint: median survival time, dose: 108.0 mg/kg/injection, schedule: Q14DX002 (ip), vehicle: saline, higher = longer survival): 154 % of control | T/C (endpoint: median survival time, dose: 144.0 mg/kg/injection, schedule: Q01DX001 (sc), vehicle: saline, higher = longer survival): 151 % of control | T/C (endpoint: median survival time, dose: 180.0 mg/kg/injection, schedule: Q08DX003 (ip), vehicle: saline, higher = longer survival): 68 % of control | T/C (endpoint: median survival time, dose: 180.0 mg/kg/injection, schedule: Q08DX003 (sc), vehicle: saline, higher = longer survival): 100 % of control and 103 % of control | T/C (endpoint: median survival time, dose: 180.0 mg/kg/injection, schedule: Q14DX002 (ip), vehicle: saline, higher = longer survival): 113 % of control | T/C (endpoint: median survival time, dose: 200.0 mg/kg/injection, schedule: Q01DX001 (ip), vehicle: methylcellulose (MC), higher = longer survival): 39 % of control | T/C (endpoint: median survival time, dose: 200.0 mg/kg/injection, schedule: Q03DX010 (ip), vehicle: saline, higher = longer survival): 30 % of control | T/C (endpoint: median survival time, dose: 200.0 mg/kg/injection, schedule: Q14DX002 (ip), vehicle: saline, higher = longer survival): 122 % of control | T/C (endpoint: median survival time, dose: 240.0 mg/kg/injection, schedule: Q01DX001 (sc), vehicle: saline, higher = longer survival): 174 % of control and 180 % of control | T/C (endpoint: median survival time, dose: 300.0 mg/kg/injection, schedule: Q01DX001 (ip), vehicle: saline, higher = longer survival): 63 % of control | T/C (endpoint: median survival time, dose: 300.0 mg/kg/injection, schedule: Q01DX001 (sc), vehicle: saline, higher = longer survival): 160 % of control | T/C (endpoint: median survival time, dose: 300.0 mg/kg/injection, schedule: Q08DX003 (ip), vehicle: saline, higher = longer survival): 57 % of control | T/C (endpoint: median survival time, dose: 400.0 mg/kg/injection, schedule: Q01DX001 (ip), vehicle: methylcellulose (MC), higher = longer survival): 22 % of control | T/C (endpoint: median survival time, dose: 400.0 mg/kg/injection, schedule: Q01DX001 (ip), vehicle: saline, higher = longer survival): 60 % of control | T/C (endpoint: median survival time, dose: 400.0 mg/kg/injection, schedule: Q01DX001 (sc), vehicle: saline, higher = longer survival): 49 % of control | T/C (endpoint: median survival time, dose: 460.0 mg/kg/injection, schedule: Q01DX001 (ip), vehicle: saline, higher = longer survival): 18 % of control | T/C (endpoint: median tumor weight (est.), dose: 65.0 mg/kg/injection, schedule: Q01DX001 (ip), vehicle: saline, higher = larger tumour): 27 % of control
